Measured values as given in publication PMC7251097, “Aspartate/asparagine-β-hydroxylase: a high-throughput mass spectrometric assay for discovery of small molecule inhibitors” (Scientific Reports, 2020).
Where a name gives a salt, the structure may show the parent alone. Read-outs that look alike come from different tables or passages of the source.

Target: T1, His6-AspH315–758 (human aspartate/asparagine-β-hydroxylase, AspH) (Homo sapiens, UniProt Q12797)
T1 construct: N-Terminally His6-tagged human AspH315–758 (His6-AspH315–758) was produced in E. coli BL21 (DE3) cells; made in house; host or cells: E. coli BL21 (DE3), pET-28a(+) vector
T1 sequence (Q12797 315-758): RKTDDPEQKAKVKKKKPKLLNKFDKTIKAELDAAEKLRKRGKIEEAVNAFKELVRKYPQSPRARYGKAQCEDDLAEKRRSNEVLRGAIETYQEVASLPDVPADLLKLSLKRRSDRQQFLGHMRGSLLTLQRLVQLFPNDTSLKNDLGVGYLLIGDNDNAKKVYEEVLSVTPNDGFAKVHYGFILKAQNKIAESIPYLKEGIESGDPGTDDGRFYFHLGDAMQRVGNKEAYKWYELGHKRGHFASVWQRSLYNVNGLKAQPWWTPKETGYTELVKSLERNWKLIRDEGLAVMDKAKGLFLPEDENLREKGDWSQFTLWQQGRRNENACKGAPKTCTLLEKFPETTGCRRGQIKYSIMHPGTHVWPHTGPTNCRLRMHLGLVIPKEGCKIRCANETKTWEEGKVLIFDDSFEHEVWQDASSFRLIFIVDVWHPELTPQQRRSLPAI
Assay: SPE-MS AspH inhibition assay (LOPAC screen at fixed 20 μM and IC50 dose-response), hydroxylation of cyclic peptide hFX-CP101–119
Format: biochemical

[1] = LOPAC compound at fixed 20 uM, plate 1, normalised to DMSO and 2,4-PDCA controls
[2] = LOPAC compound at fixed 20 uM, substrate conversion, plate 1
[3] = LOPAC Plate 4, compound at 20 uM, read-out: % inhibition
[4] = LOPAC Plate 4, compound at 20 uM, substrate conversion
[5] = LOPAC compound at 20uM, plate 2, conversion of substrate peptide
[6] = LOPAC compound at 20uM, plate 2, normalised to DMSO and 2,4-PDCA controls, read-out: Plate 2 (% inhibition)
[7] = read-out: Plate 2 (% inhibition)
[8] = LOPAC compound at 20uM, plate 2, normalised to DMSO and 2,4-PDCA controls
[9] = LOPAC compound at 20uM, plate 3, conversion of substrate peptide
[10] = plate 5 (Pfitzer), test compounds at fixed 20 μM
[11] = plate 5 (Pfitzer), test compounds at fixed 20 μM, mean conversion DMSO 32.88
[12] = LOPAC Plate 4, compound at 20 uM
[13] = AspH activity, fixed compound concentration 20 μM, initial LOPAC screen, 0.5%v/v DMSO, read-out: Inhibition at 20 µM [%]

With Cl.Cl.Cn1cnc(CCN)c1 [1-Methylhistamine dihydrochloride] the “Plate 3 (% conversion)” value was 37.48%.
For N[C@@H]1[C@H]2CN(c3nc4c(cc3F)c(=O)c(C(=O)O)cn4-c3ccc(F)cc3F)C[C@@H]12 [Trovafloxacin mesylate], the “Plate 1 (% inhibition)” value [1] was -24.51% and the “Plate 1 (% conversion)” value [2] was 44.10%.
With S=C(NC1CCCCC1)N1CCC(c2cnc[nH]2)CC1 [Thioperamide maleate] the “% conversion” value was 37.27% and the inhibition at 20 µM [3] was -2.35%.
For CC(O)(CS(=O)(=O)c1ccc(F)cc1)C(=O)Nc1ccc(C#N)c(C(F)(F)F)c1 (centres unmarked) [Bicalutamide (CDX)], the “% conversion” value [4] was 24.70%.
For CC(C)C(=O)c1c(C(C)C)nn2ccccc12 [Ibudilast], the “Plate 2 (% conversion)” value [5] was 39.05% and the inhibition at 20 µM [6] was -9.26%.
In the case of Cl.Nc1cc(Cl)c(N=C2NCCN2)c(Cl)c1 [p-Aminoclonidine hydrochloride], the “Plate 1 (% inhibition)” value [1] is reported as -0.11% and the “Plate 1 (% conversion)” value [2] is reported as 35.91%.
With CCC1(C2=NCCN2)Cc2ccccc2O1 (centres unmarked) [Efaroxan hydrochloride] the “Plate 2 (% conversion)” value [5] was 34.90% and the inhibition at 20 µM [6] was 3.14%.
C[n+]1cc2c3c(ccc2c2ccc4cc5c(cc4c21)OCO5)OCO3 [Sanguinarine chloride] was tested, and the “% conversion” value was 10.82%.
In the case of Nc1c[n+](N2CCOCC2)no1.[Cl-] [3-Morpholinosydnonimine hydrochloride], the “Plate 1 (% inhibition)” value [1] is reported as 64.67% and the “Plate 1 (% conversion)” value [2] is reported as 14.15%.
For Cc1cccc(C#Cc2ccccc2)n1.Cl, the “Plate 3 (% conversion)” value was 40.82%.
In the case of CC(C)(C)NCC(O)c1ccc(O)c(CO)c1.CC(C)(C)NCC(O)c1ccc(O)c(CO)c1.O=S(=O)(O)O (centres unmarked) [Albuterol hemisulfate], the “% conversion” value [4] is reported as 30.81%.
With C#CCOC(=O)C1=CCCN(C)C1 [Arecaidine propargyl ester hydrobromide] the “Plate 1 (% conversion)” value was 37.75% and the “Plate 1 (% inhibition)” value was -5.59%.
In the case of CC1=C(/C=C/C(C)=C/C=C/C(C)=C\C(=O)O)C(C)(C)CCC1 [13-cis-retinoic acid], the “% conversion” value [4] is reported as 23.26%.
For c1ccc2c(c1)[I+]c1ccccc1-2 [Diphenyleneiodonium chloride], the “Plate 2 (% conversion)” value was 35.66% and the inhibition at 20 µM [7] was 0.88%.
With CC(=O)C(C)=O [2,3-Butanedione] the “Plate 2 (% conversion)” value [5] was 38.17% and the inhibition at 20 µM [6] was -6.62%.
In the case of Cl.O[Si](CCCN1CCCCC1)(c1ccc(F)cc1)C1CCCCC1 (centres unmarked), the “Plate 2 (% conversion)” value [5] is reported as 40.91% and the “Plate 2 (% inhibition)” value [8] is reported as -14.81%.
For CCCCCCC(=O)OC1CC(C)(C)NC(C)(C)C1.Cl [TMPH hydrochloride], the “Plate 3 (% conversion)” value [9] was 40.82%.
In the case of CN(C)C(=O)[C@H](O)[C@H](Cc1ccccc1)NC(=O)c1cc2cc(Cl)ccc2[nH]1 [CP-91149], the “Plate 2 (% conversion)” value is reported as 37.12%, the “Plate 5 (% conversion)” value is reported as 35.66% and the “Plate 5 (% inhibition)” value is reported as 1.91%. For the same compound, the “Plate 2 (% inhibition)” value (20 µM) was -3.47%.
With N[C@@H](Cc1ccc(F)cc1)C(=O)O [p-Fluoro-L-phenylalanine] the “Plate 2 (% conversion)” value [5] was 36.49% and the “Plate 2 (% inhibition)” value [8] was -1.58%.
In the case of NC(=O)c1noc([C@H](CCCC2CCCCC2)CC(=O)NO)n1 [UK-383367], the “Plate 5 (% inhibition)” value [10] is reported as 50.83% and the “Plate 5 (% conversion)” value [11] is reported as 19.02%.
CCC1(C)CC(=O)NC1=O (centres unmarked) [Ethosuximide] was tested, and the “Plate 2 (% conversion)” value [5] was 37.85% and the inhibition at 20 µM [6] was -5.65%.
With Cc1cccc(C(=O)NCN2CCN(c3ccccc3C#N)CC2)c1.O=C(O)/C=C\C(=O)O [PD 168,077 maleate] the “% inhibition” value [12] was 1.73% and the “% conversion” value [4] was 35.88%.
In the case of CC(=O)[C@]1(O)Cc2c(O)c3c(c(O)c2[C@@H](O[C@H]2C[C@H](N)[C@H](O)[C@H](C)O2)C1)C(=O)c1ccccc1C3=O [Idarubicin], the “Plate 2 (% conversion)” value [5] is reported as 34.69% and the inhibition at 20 µM [6] is reported as 3.78%.
FC(F)(F)c1ccccc1-n1ccnc1 [1-[2-(Trifluoromethyl)phenyl]imidazole] was tested, and the “% conversion” value [4] was 26.55%.
N[C@@H](CS(=O)O)C(=O)O [L-Cysteinesulfinic Acid] was tested, and the “Plate 1 (% inhibition)” value [1] was 8.76% and the “Plate 1 (% conversion)” value [2] was 32.93%.
In the case of CCCn1c(=O)c2[nH]c(-c3ccc(S(=O)(=O)O)cc3)nc2n(CCC)c1=O [1,3-Dipropyl-8-p-sulfophenylxanthine], the “Plate 1 (% inhibition)” value [1] is reported as -2.36% and the “Plate 1 (% conversion)” value [2] is reported as 36.66%.
OCCN1CCN(CCCN2c3ccccc3C=Cc3ccccc32)CC1 [Opipramol dihydrochloride] was tested, and the “Plate 1 (% inhibition)” value [1] was -12.26% and the “Plate 1 (% conversion)” value [2] was 39.99%.
In the case of O=c1cc(-c2ccc(O)cc2)oc2cc(O)cc(O)c12 [Apigenin, reference compound], the inhibition at 20 µM [13] is reported as 95.8%, the “Plate 1 (% inhibition)” value [1] is reported as 95.84% and the “Plate 1 (% conversion)” value [2] is reported as 3.68%.
For CN(C)C/C=C(/c1ccc(Br)cc1)c1cccnc1 [Zimelidine dihydrochloride], the “% conversion” value [4] was 37.91%.
With Nc1ncnc2c1ncn2C1CCCC1 [9-cyclopentyladenine] the “Plate 1 (% inhibition)” value [1] was 2.94% and the “Plate 1 (% conversion)” value [2] was 34.88%.
For CCn1nc(C(=O)O)c(=O)c2cc3c(cc21)OCO3 [Cinoxacin], the “Plate 1 (% inhibition)” value [1] was -6.95% and the “Plate 1 (% conversion)” value [2] was 38.21%.
With C[C@H](Cc1ccc(OCC(=O)[O-])cc1)NC[C@H](O)c1cccc(Cl)c1.[Na+] [BRL 37344 sodium] the “Plate 1 (% inhibition)” value [1] was 4.03% and the “Plate 1 (% conversion)” value [2] was 34.52%.
CC(=O)[C@H]1CC[C@H]2[C@@H]3CC[C@H]4C[C@](C)(O)CC[C@]4(C)[C@H]3CC[C@]12C [Ganaxolone] was tested, and the “Plate 2 (% conversion)” value was 36.34% and the inhibition at 20 µM [7] was -1.16%.
[Cl-].[Li+] [Lithium Chloride] was tested, and the “Plate 2 (% conversion)” value was 35.61% and the “Plate 2 (% inhibition)” value (20 µM) was 1.04%.
For CCCN(CCC)C1Cc2cc(OC)c(OC)cc2C1.O=C(O)/C=C\C(=O)O [U-99194A maleate], the “% inhibition” value [12] was 4.59% and the “% conversion” value [4] was 34.90%.
N#CC(C#N)=Cc1ccc(O)c(O)c1 [Tyrphostin 23, reference compound] was tested, and the inhibition at 20 µM [13] was 98.7%, the “% conversion” value [4] was 2.79% and the inhibition at 20 µM [3] was 98.7%.
For Cc1ccc(-c2cc(C(F)(F)F)nn2-c2ccc(S(N)(=O)=O)cc2)cc1 [Celecoxib], the “Plate 5 (% inhibition)” value [10] was -13.08% and the “Plate 5 (% conversion)” value [11] was 40.77%.
Cl.c1ccc2c(N3CCNCC3)cccc2c1 [1-(1-Naphthyl)piperazine hydrochloride] was tested, and the “% conversion” value was 30.74%.
COc1ccc2[nH]c3c(c2c1)CCNC3 was tested, and the “Plate 1 (% conversion)” value was 36.98% and the “Plate 1 (% inhibition)” value [1] was -3.29%.
In the case of O=C(OCCN1CCOCC1)C1(c2ccccc2)CCCCC1 [PRE-084], the “Plate 3 (% conversion)” value [9] is reported as 38.46%.
With CC(C)NCC(O)COc1cccc2ccccc12.Cl (racemic) [(±)-Propranolol hydrochloride] the “Plate 3 (% conversion)” value was 40.68%.
For c1ccc(-c2cnn3cc(-c4ccc(OCCN5CCOCC5)cc4)cnc23)cc1 [DMH4], the “Plate 1 (% inhibition)” value [1] was -35.30% and the “Plate 1 (% conversion)” value [2] was 47.73%.
With C=CC(N)CCC(=O)O (racemic) [(±)-gamma-Vinyl GABA] the “% conversion” value [4] was 37.96%.
With COc1cc2c(cc1OC)C1CC(=O)C(CC(C)C)CN1CC2 (centres unmarked) [Tetrabenazine] the “% conversion” value [4] was 27.36%.
With CC(=O)c1cccc(N[C@H]2[C@H](N)[C@@](NC(=O)N(C)C)([C@H](C)O)[C@@](C)(O)[C@@]2(O)COC(=O)c2c(C)cccc2O)c1 [Pactamycin] the “Plate 5 (% inhibition)” value [10] was 21.27% and the “Plate 5 (% conversion)” value [11] was 29.07%.
In the case of C[N+](C)(C)CC#CCOC(=O)Nc1cccc(Cl)c1.[Cl-] [McN-A-343], the “Plate 1 (% inhibition)” value [1] is reported as -1.57% and the “Plate 1 (% conversion)” value [2] is reported as 36.40%.
For CC(N)Cc1c[nH]c2ccc(O)cc12.O=C(O)/C=C\C(=O)O (stereo not drawn) [alpha-Methyl-5-hydroxytryptamine maleate], the “Plate 3 (% conversion)” value was 39.06%.
In the case of O=C(O)/C=C\C(=O)O.c1cnc(N2CCN(Cc3ccc4c(c3)OCO4)CC2)nc1 [Piribedil maleate], the “% inhibition” value [12] is reported as -4.83% and the “% conversion” value [4] is reported as 38.12%.
In the case of CCCCCCN(CCCCCC)C(=O)Cc1c(-c2ccc(F)cc2)[nH]c2ccccc12, the “Plate 2 (% conversion)” value is reported as 35.52% and the “Plate 2 (% inhibition)” value (20 µM) is reported as 1.31%.
CC(C)(NS(=O)(=O)c1ccc(Oc2ccc(F)cc2)cc1)C(=O)NO [CP-471474] was tested, and the “Plate 5 (% conversion)” value was 38.13% and the “Plate 5 (% inhibition)” value was -5.33%.
For COc1cc2nc(N(C)CCCNC(=O)C3CCCO3)nc(N)c2cc1OC (centres unmarked) [Alfuzosin hydrochloride], the “Plate 1 (% inhibition)” value [1] was -12.38% and the “Plate 1 (% conversion)” value [2] was 40.03%.
For [N-]=[N+]=Nc1ccc(C(=O)CSC[C@H](NC(=O)CC[C@H](N)C(=O)O)C(=O)NCC(=O)O)cc1 [S-(p-Azidophenacyl)glutathione], the “Plate 1 (% inhibition)” value [1] was -2.24% and the “Plate 1 (% conversion)” value [2] was 36.62%.
With Nc1nc(OCc2ccccc2)c2nc[nH]c2n1 [O6-benzylguanine] the “Plate 1 (% inhibition)” value [1] was -1.55% and the “Plate 1 (% conversion)” value [2] was 36.39%.
For Clc1ccc2c(c1)C(N1CCNCC1)=Nc1ccccc1O2 [Amoxapine], the “Plate 1 (% inhibition)” value [1] was -8.96% and the “Plate 1 (% conversion)” value [2] was 38.88%.
In the case of C[C@](N)(Cc1ccc(O)cc1)C(=O)O [L-alpha-Methyl-p-tyrosine], the “Plate 3 (% conversion)” value is reported as 32.12%.
